In series [1] the test system is influenza viruses (A/PR8/34/H1N1). Kind of series: Hemagglutination assay with chicken erythrocytes. Format: cell-based, influenza virus. Particulars: final concentrations 0 to 16 μmol/l, FIG. 3.
Series [2] has the same test system. Particulars: for EC50: read-out: EC50 Antiviral effect (50% effective concentration), viral infection-preventing effect.
Series [3] deals with canine kidney cultured cells (MDCK). Particulars: read-out: CC50 Cytotoxicity (50% cytotoxic concentration); Table 3.
Series [4] deals with influenza viruses (A/PR8/34/H1N1). Particulars: for EC50: read-out: EC50 Antiviral effect (50% effective concentration), viral infectivity-inhibiting effect.
Series [5] has the same test system. As to the kind of experiment: microbe, parasite or virus in culture. Particulars: H1N1|PR8, MDCK, read-out: EC50 Antiviral effect (50% effective concentration), viral infection-preventing effect.
The test system is the same in series [6]. Kind of series: microbe, parasite or virus in culture. Particulars: H1N1|PR8, MDCK, read-out: EC50 Antiviral effect (50% effective concentration), viral infectivity-inhibiting effect.

Here are results for three compounds from patent US8952055B2 (priority 2008, dated 2015).

Like-named read-outs stand apart in the source and are kept apart here.

Regarding `O=C(O[C@@H]1Cc2c(O)cc(O)cc2O[C@@H]1c1cc(O)c(O)c(O)c1)c1cc(O)c(O)c(O)c1` [EGCG, epigallocatechin gallate], the “suppression of agglutination of the erythrocytes” value in series [1] is on record as “not observed”. Besides, the “SI Selectivity (Selective Index = CC50/EC50)” value was 2.91 in series [2] (Table 3, viral infection-preventing effect) and 703 in series [4] (Table 4, viral infectivity-inhibiting effect). Moreover, the EC50 in series [2] is 94.6 µM; in series [2] (Table 5, Example 3, comparison with zanamivir and oseltamivir phosphate), 94.7 µM; in series [4] (Table 4, sample incubated with A/PR8/34/H1N1 for 30 minutes before application to MDCK cells), 0.391 µM; in series [4] (Table 6, Example 3, comparison with zanamivir and oseltamivir phosphate), 0.391 µM. The CC50 in series [3] was 276 µM.

Take `CCOC(=O)C1=C[C@@H](OC(CC)CC)[C@H](NC(C)=O)[C@@H](N)C1` [oseltamivir phosphate]: the EC50 turned out to be 58.2 µM in series [5] and 56.2 µM in series [6].

`CC(=O)N[C@H]1[C@H]([C@H](O)[C@H](O)CO)OC(C(=O)O)=C[C@@H]1N=C(N)N` [zanamivir]: the figures for the EC50 in series [5] and in series [6] were 38 µM and 6.3 µM, respectively.
